Molecular target: T1, human neutrophil elastase (HNE) (Homo sapiens, UniProt P08246)
T1 construct: purchased Sigma E8140
T1 sequence (P08246 30-247 limits assumed): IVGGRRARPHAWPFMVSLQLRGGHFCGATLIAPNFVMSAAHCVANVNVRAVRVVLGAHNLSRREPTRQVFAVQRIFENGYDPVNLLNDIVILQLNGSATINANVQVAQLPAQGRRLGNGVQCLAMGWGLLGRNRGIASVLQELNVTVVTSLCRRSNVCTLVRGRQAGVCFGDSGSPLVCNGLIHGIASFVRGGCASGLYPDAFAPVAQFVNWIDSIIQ
Assay: HNE enzyme assay (human neutrophil elastase enzyme activity assay)
Type: biochemical
Details: human leukocyte elastase 0.00072 U/mL; substrate MeOSuc-Ala-Ala-Pro-Val-AMC 100 μM; 25° C. for 30 minutes; at least two separate experiments; read-out: HNE inhibition (HNE enzyme inhibition, IC50 values)
Experimental: Compounds of the present invention were tested for potency in a human neutrophil elastase (HNE) enzyme activity assay.
Assays were performed in 96-well plates in a total assay volume of 100 μL. The final concentration of elastase enzyme (human leukocyte elastase, Sigma E8140) was 0.00072 U/mL. The peptide substrate (MeOSuc-Ala-Ala-Pro-Val-AMC, Calbiochem #324740) was used at a final concentration of 100 μM. The final concentration of DMSO was 1% in the assay buffer (0.05M Tris.HCl, 0.1M NaCl, 0.1M CaCl2, 0.0005% brij-35, pH 7.5). The enzymatic reaction was started by addition of the enzyme and incubated at 25° C. for 30 minutes. After incubation, the reaction was stopped by addition of soybean trypsin inhibitor (Sigma T9003) at a final concentration of 50 μg/well. Fluorescence was measured using a Molecular Devices fluorescence plate reader using 380 nm excitation and 460 nm emission wavelengths.
A dose response to each compound was performed and the effect of compound in each experiment was expressed as a percentage inhibition of the control enzyme fluorescence. Dose response curves were plotted and compound potency (IC50) was determined. Compounds were tested in at least two separate experiments.

Row | SMILES | IC50
1 | C[C@H](NC(=O)c1c(-c2ccnn2-c2ccc(C#N)cc2)n(C)n(-c2cccc(C(F)(F)F)c2)c1=O)c1cc[n+](C)cc1 [Example 19, 4-((S)-1-{[2′-(4-Cyano-phenyl)-2-methyl-5-oxo-1-(3-trifluoromethyl-phenyl)-2,5-dihydro-1H,2′H-[3,3′]bipyrazolyl-4-carbonyl]-amino}-ethyl)-1-methyl-pyridinium benzene sulphonate] | < 1 nM
2 | CN1CCC(NC(=O)c2c(-c3ccnn3-c3ccc(C#N)cc3)n(C)n(-c3cccc(C(F)(F)F)c3)c2=O)CC1 [Example 2, 2′-(4-Cyano-phenyl)-2-methyl-5-oxo-1-(3-trifluoromethyl-phenyl)-2,5-dihydro-1H,2′H-[3,3′]bipyrazolyl-4-carboxylic acid (1-methyl-piperidin-4-yl)-amide] | 1 to 10 nM
3 | CN(C)CCOC(=O)[C@H]1CC[C@H](NC(=O)c2c(-c3ccnn3-c3ccc(C#N)cc3)n(C)n(-c3cccc(C(F)(F)F)c3)c2=O)CC1 [Example 15, Trans-4-{[2′-(4-cyano-phenyl)-2-methyl-5-oxo-1-(3-trifluoromethyl-phenyl)-2,5-dihydro-1H,2′H-[3,3′]bipyrazolyl-4-carbonyl]-amino}-cyclohexanecarboxylic acid 2-dimethylamino-ethyl ester] | < 1 nM
4 | CC(C)[C@H](NC(=O)c1c(-c2ccnn2-c2ccc(C#N)cc2)n(C)n(-c2cccc(C(F)(F)F)c2)c1=O)c1ncc(CN(C)C)o1 [Example 11, 2′-(4-Cyano-phenyl)-2-methyl-5-oxo-1-(3-trifluoromethyl-phenyl)-2,5-dihydro-1H,2′H-[3,3′]bipyrazolyl-4-carboxylic acid [(S)-1-(5-dimethylaminomethyl-oxazol-2-yl)-2-methyl-propyl]-amide] | < 1 nM
5 | CCOC(=O)c1c(-c2ccnn2-c2ccc(C#N)cc2)n(C)n(-c2cccc(C(F)(F)F)c2)c1=O [Example 1, 2′-(4-Cyano-phenyl)-2-methyl-5-oxo-1-(3-trifluoromethyl-phenyl)-2,5-dihydro-1H,2′H-[3,3′]bipyrazolyl-4-carboxylic acid ethyl ester] | < 1 nM
6 | C[C@H](NC(=O)c1c(-c2ccnn2-c2ccc(C#N)cc2)n(C)n(-c2cccc(C(F)(F)F)c2)c1=O)C(=O)N1CCCN(C)CC1 [Example 17, 2′-(4-Cyano-phenyl)-2-methyl-5-oxo-1-(3-trifluoromethyl-phenyl)-2,5-dihydro-1H,2′H-[3,3′]bipyrazolyl-4-carboxylic acid [(S)-1-methyl-2-(4-methyl-[1,4]diazepan-1-yl)-2-oxo-ethyl]-amide] | < 1 nM
7 | C[C@H](NC(=O)c1c(-c2ccnn2-c2ccc(C#N)cc2)n(C)n(-c2cccc(C(F)(F)F)c2)c1=O)C(=O)N1CC[N+](C)(Cc2ccccc2)CC1 [Example 27, 1-Benzyl-4-((S)-2-{[2′-(4-cyano-phenyl)-2-methyl-5-oxo-1-(3-trifluoromethyl-phenyl)-2,5-dihydro-1H,2′H-[3,3′]bipyrazolyl-4-carbonyl]-amino}-propionyl)-1-methyl-piperazin-1-ium bromide] | < 1 nM
8 | CN(C)CC(=O)O[C@H]1CC[C@H](NC(=O)c2c(-c3ccnn3-c3ccc(C#N)cc3)n(C)n(-c3cccc(C(F)(F)F)c3)c2=O)CC1 [Example 16, Dimethylamino-acetic acid trans-4-{[2′-(4-cyano-phenyl)-2-methyl-5-oxo-1-(3-trifluoromethyl-phenyl)-2,5-dihydro-1H,2′H-[3,3′]bipyrazolyl-4-carbonyl]-amino}-cyclohexyl ester] | < 1 nM
9 | C[C@H](NC(=O)c1c(-c2ccnn2-c2ccc(C#N)cc2)n(C)n(-c2cccc(C(F)(F)F)c2)c1=O)C(=O)N1CC[N+](C)(C)CC1 [Example 26, 4-((S)-2-{[2′-(4-Cyano-phenyl)-2-methyl-5-oxo-1-(3-trifluoromethyl-phenyl)-2,5-dihydro-1H,2′H-[3,3′]bipyrazolyl-4-carbonyl]-amino}-propionyl)-1,1-dimethyl-piperazin-1-ium benzene sulphonate] | < 1 nM
10 | CN1CCC(CN(C)C(=O)C(C)(C)NC(=O)c2c(-c3ccnn3-c3ccc(C#N)cc3)n(C)n(-c3cccc(C(F)(F)F)c3)c2=O)CC1 [Example 9, 2′-(4-Cyano-phenyl)-2-methyl-5-oxo-1-(3-trifluoromethyl-phenyl)-2,5-dihydro-1H,2′H-[3,3′]bipyrazolyl-4-carboxylic acid {1-methyl-1-[methyl-(1-methyl-piperidin-4-ylmethyl)-carbamoyl]-ethyl}-amide] | < 1 nM
11 | C[C@H](NC(=O)c1c(-c2ccnn2-c2ccc(C#N)cc2)n(C)n(-c2cccc(C(F)(F)F)c2)c1=O)c1ncc(CN(C)C)o1 [Example 5, 2′-(4-Cyano-phenyl)-2-methyl-5-oxo-1-(3-trifluoromethyl-phenyl)-2,5-dihydro-1H,2′H-[3,3′]bipyrazolyl-4-carboxylic acid [(S)-1-(5-dimethylaminomethyl-oxazol-2-yl)-ethyl]-amide] | < 1 nM

Other lines, results leading:

Row | IC50 | SMILES
12 | < 1 nM | C[C@H](NC(=O)c1c(-c2ccnn2-c2ccc(C#N)cc2)n(C)n(-c2cccc(C(F)(F)F)c2)c1=O)c1ncc(C[N+](C)(C)C)o1 [Example 30, [2-((S)-1-{[2′-(4-Cyano-phenyl)-2-methyl-5-oxo-1-(3-trifluoromethyl-phenyl)-2,5-dihydro-1H,2′H-[3,3′]bipyrazolyl-4-carbonyl]-amino}-ethyl)-oxazol-5-ylmethyl]-trimethyl-ammonium benzene sulphonate]
13 | < 1 nM | Cn1c(-c2ccnn2-c2ccc(C#N)cc2)c(C(=O)N[C@H]2CC[C@H](c3ncc(C[N+](C)(C)C)o3)CC2)c(=O)n1-c1cccc(C(F)(F)F)c1 [Example 67, [2-(Trans-4-{[2′-(4-Cyano-phenyl)-2-methyl-5-oxo-1-(3-trifluoromethyl-phenyl)-2,5-dihydro-1H,2′H-[3,3′]bipyrazolyl-4-carbonyl]-amino}-cyclohexyl)-oxazol-5-ylmethyl]-trimethyl-ammonium benzene sulphonate]
14 | < 1 nM | Cc1cc(C[N+]2(C)CCN(C(=O)[C@H](C)NC(=O)c3c(-c4ccnn4-c4ccc(C#N)cc4)n(C)n(-c4cccc(C(F)(F)F)c4)c3=O)CC2)no1 [Example 49, 4-((S)-2-{[2′-(4-Cyano-phenyl)-2-methyl-5-oxo-1-(3-trifluoromethyl-phenyl)-2,5-dihydro-1H,2′H-[3,3′]bipyrazolyl-4-carbonyl]-amino}-propionyl)-1-methyl-1-(5-methyl-isoxazol-3-ylmethyl)-piperazin-1-ium chloride]
15 | 1 to 10 nM | C[C@H](NC(=O)c1c(-c2ccnn2-c2ccc(C#N)cc2)n(C)n(-c2cccc(C(F)(F)F)c2)c1=O)c1ncc(CC[N+](C)(C)C)o1 [Example 52, {2-[2-((S)-1-{[2′-(4-Cyano-phenyl)-2-methyl-5-oxo-1-(3-trifluoromethyl-phenyl)-2,5-dihydro-1H,2′H-[3,3′]bipyrazolyl-4-carbonyl]-amino}-ethyl)-oxazol-5-yl]-ethyl}-trimethyl-ammonium benzene sulphonate]
16 | < 1 nM | C[C@H](NC(=O)c1c(-c2ccnn2-c2ccc(C#N)cc2)n(C)n(-c2cccc(C(F)(F)F)c2)c1=O)C(=O)N1CCC([N+](C)(C)C)CC1 [Example 41, [1-((S)-2-{[2′-(4-Cyano-phenyl)-2-methyl-5-oxo-1-(3-trifluoromethyl-phenyl)-2,5-dihydro-1H,2′H-[3,3′]bipyrazolyl-4-carbonyl]-amino}-propionyl)-piperidin-4-yl]-trimethyl-ammonium benzene sulphonate]
17 | < 1 nM | Cn1c(-c2ccnn2-c2ccc(C#N)cc2)c(C(=O)NC2CCN(C(=O)C[N+](C)(C)C)CC2)c(=O)n1-c1cccc(C(F)(F)F)c1 [Example 33, [2-(4-{[2′-(4-Cyano-phenyl)-2-methyl-5-oxo-1-(3-trifluoromethyl-phenyl)-2,5-dihydro-1H,2′H-[3,3′]bipyrazolyl-4-carbonyl]-amino}-piperidin-1-yl)-2-oxo-ethyl]-trimethyl-ammonium benzene sulphonate]
18 | < 1 nM | CC(C)[C@H](NC(=O)c1c(-c2ccnn2-c2ccc(C#N)cc2)n(C)n(-c2cccc(C(F)(F)F)c2)c1=O)c1ncc(C[N+](C)(C)C)o1 [Example 53, [2-((S)-1-{[2′-(4-Cyano-phenyl)-2-methyl-5-oxo-1-(3-trifluoromethyl-phenyl)-2,5-dihydro-1H,2′H-[3,3′]bipyrazolyl-4-carbonyl]-amino}-2-methyl-propyl)-oxazol-5-ylmethyl]-trimethyl-ammonium benzene sulphonate]
19 | < 1 nM | Cc1cc(C[N+](C)(C)C[C@H]2CC[C@H](NC(=O)c3c(-c4ccnn4-c4ccc(C#N)cc4)n(C)n(-c4cccc(C(F)(F)F)c4)c3=O)CC2)no1 [Example 47, (Trans-4-{[2′-(4-cyano-phenyl)-2-methyl-5-oxo-1-(3-trifluoromethyl-phenyl)-2,5-dihydro-1H,2′H-[3,3′]bipyrazolyl-4-carbonyl]-amino}-cyclohexylmethyl)-dimethyl-(5-methyl-isoxazol-3-ylmethyl)-ammonium chloride]

Source: patent publication US10172830B2, “Pyrazolone compounds having human neutrophil elastase inhibitory properties” (CHIESI FARMACEUTICI S.P.A., priority 2016, dated 2019)
